Here are results for 23 compounds from ChEMBL document CHEMBL1134132, “Development of potent and selective factor Xa inhibitors” (Bioorg Med Chem Lett, 2001).

Molecules are shown by their SMILES.

The target of one assay is Prothrombin (Homo sapiens, UniProt P00734). Nature of the assay: Inhibitory activity against thrombin(fIIa) in human plasma. Format: cell-free.
For the next assay, the target named is Coagulation factor X (Homo sapiens, UniProt P00742). Nature of the assay: Inhibitory activity against Coagulation factor X in human plasma. Format: cell-free.
Sequence of Coagulation factor X (P00742 41-179 limits assumed): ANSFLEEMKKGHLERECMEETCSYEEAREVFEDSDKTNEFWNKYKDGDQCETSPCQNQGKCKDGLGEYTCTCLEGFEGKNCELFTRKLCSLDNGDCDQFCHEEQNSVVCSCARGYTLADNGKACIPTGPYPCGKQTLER
Sequence of Coagulation factor X (P00742 235-488 limits assumed): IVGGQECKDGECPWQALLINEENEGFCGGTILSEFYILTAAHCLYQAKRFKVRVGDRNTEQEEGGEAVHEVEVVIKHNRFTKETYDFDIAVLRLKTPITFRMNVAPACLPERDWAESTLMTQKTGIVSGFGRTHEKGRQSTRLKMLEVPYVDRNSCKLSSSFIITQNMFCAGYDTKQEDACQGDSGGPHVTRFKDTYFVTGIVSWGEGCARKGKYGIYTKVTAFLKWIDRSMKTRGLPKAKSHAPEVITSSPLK
Assay [1] has as its target Urokinase-type plasminogen activator (Homo sapiens, UniProt P00749).
The nature of assay [2]: In vitro anticoagulant effect to double the activated partial thromboplastin time in human plasma. The format is functional.
In a further assay the target is Plasminogen (Homo sapiens, UniProt P00747). Nature of the assay: Inhibitory activity against plasmin in human plasma. Format: cell-free.
Sequence of Plasminogen (P00747 97-580 limits assumed): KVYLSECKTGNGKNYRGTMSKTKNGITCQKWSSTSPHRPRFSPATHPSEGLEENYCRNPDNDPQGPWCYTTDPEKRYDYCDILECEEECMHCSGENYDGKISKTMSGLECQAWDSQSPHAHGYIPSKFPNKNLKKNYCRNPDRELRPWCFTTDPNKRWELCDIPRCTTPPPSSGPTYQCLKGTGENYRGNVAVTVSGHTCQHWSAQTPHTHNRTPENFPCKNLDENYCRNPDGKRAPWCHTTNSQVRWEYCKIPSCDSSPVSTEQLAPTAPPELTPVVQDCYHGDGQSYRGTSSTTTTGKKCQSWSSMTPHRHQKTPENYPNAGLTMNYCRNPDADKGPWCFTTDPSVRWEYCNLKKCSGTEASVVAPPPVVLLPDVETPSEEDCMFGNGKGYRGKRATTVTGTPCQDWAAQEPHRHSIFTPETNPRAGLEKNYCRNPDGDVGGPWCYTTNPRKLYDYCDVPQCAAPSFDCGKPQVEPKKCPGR
Sequence of Plasminogen (P00747 581-810 limits assumed): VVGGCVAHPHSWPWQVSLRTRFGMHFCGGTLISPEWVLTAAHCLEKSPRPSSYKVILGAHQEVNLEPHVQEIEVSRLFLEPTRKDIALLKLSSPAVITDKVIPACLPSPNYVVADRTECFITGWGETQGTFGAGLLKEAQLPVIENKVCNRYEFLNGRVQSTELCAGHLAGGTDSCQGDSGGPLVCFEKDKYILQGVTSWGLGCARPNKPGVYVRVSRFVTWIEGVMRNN
In a further assay the target is Serine protease 1 (Homo sapiens, UniProt P07477). The experiment in a line: Inhibitory activity against trypsin in human plasma. Format: cell-free.
Sequence of Serine protease 1 (P07477 whole entry): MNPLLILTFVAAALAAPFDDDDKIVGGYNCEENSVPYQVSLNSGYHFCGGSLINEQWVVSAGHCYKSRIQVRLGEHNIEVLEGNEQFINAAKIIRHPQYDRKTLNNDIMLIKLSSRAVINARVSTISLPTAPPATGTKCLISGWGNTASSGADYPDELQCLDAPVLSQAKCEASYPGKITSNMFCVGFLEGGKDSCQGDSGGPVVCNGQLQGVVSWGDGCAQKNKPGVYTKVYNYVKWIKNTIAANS

One may read the Ki as a measure of affinity in units of concentration, obtained from inhibition or displacement. Read a low Ki as a stronger hold on the target. As for `COC(=O)Cc1cc(Br)c(O)c(-c2[nH]c3ccc(C(=N)N)cc3c2Cc2ccccc2)c1`, the values for the Ki at Prothrombin and at Coagulation factor X were 80 nM and 3 nM, respectively.
Turning to `CC(C)(C(=O)O)c1cc(Br)c(O)c(-c2[nH]c3ccc(C(=N)N)cc3c2Cc2ccccc2)c1`, the Ki in assay [1] was found to be 350 nM; at Prothrombin, 750 nM; on Plasminogen, 3000 nM; at Serine protease 1 it was 1300 nM; at Coagulation factor X, 10 nM. In addition, in assay [2], the “2x aPPT” value is 0.93 µM.
At Prothrombin, `NC(=O)c1ccc2[nH]c(-c3cc(CCC(=O)O)cc(Br)c3O)c(Cc3ccccc3)c2c1` gave a Ki of 78000 nM.
On to `Cc1cc(Cl)c(O)c(-c2cc3cc(C(=N)N)ccc3[nH]2)c1`, for which the Ki stood at 190 nM in assay [1]; 460 nM on Prothrombin; 1000 nM on Plasminogen; 700 nM on Serine protease 1; 130 nM at Coagulation factor X.
`N=C(N)c1ccc2[nH]c(-c3cc(Cc4nn[nH]n4)cc(Br)c3O)c(Cc3ccccc3)c2c1`: the inhibition constant Ki in assay [1] is 350 nM; at Prothrombin, 440 nM; on Plasminogen it was 2200 nM; on Serine protease 1, 840 nM; on Coagulation factor X it was 20 nM. Moreover, the “2x aPPT” value in assay [2] was 0.59 µM.
Turning to `N=C(N)c1ccc2[nH]c(-c3cc(CC(N)=O)cc(Br)c3O)c(Cc3ccccc3)c2c1`, the Ki came to 25 nM on Prothrombin and 2 nM on Coagulation factor X.
The corresponding values for `COc1c(Br)cc(CCC(=O)O)cc1-c1[nH]c2ccc(C(=N)N)cc2c1Cc1ccccc1` are 2500 nM and 45 nM.
Take `N=C(N)c1ccc2[nH]c(-c3cc(CC(=O)O)cc(Br)c3O)c(Cc3ccccc3)c2c1`: the Ki was 430 nM in assay [1]; 1000 nM at Prothrombin; 1800 nM at Plasminogen; 1200 nM at Serine protease 1; 3 nM on Coagulation factor X. Further, the “2x aPPT” value in assay [2] was 0.38 µM.
With `CN(C)C(=O)Cc1cc(Br)c(O)c(-c2[nH]c3ccc(C(=N)N)cc3c2Cc2ccccc2)c1`, the Ki on Prothrombin worked out at 43 nM; at Coagulation factor X, 2 nM.
Turning to `Cc1cc(-c2ccccc2)c(O)c(-c2cc3cc(C(=N)N)ccc3[nH]2)c1`, the Ki in assay [1] was 110 nM; at Prothrombin, 4000 nM; at Plasminogen, 1500 nM; at Serine protease 1 it was 1800 nM; on Coagulation factor X it was 640 nM.
`N=C(N)c1ccc2[nH]c(-c3cc(Br)cc(CCC(=O)O)c3)c(Cc3ccccc3)c2c1`: the Ki was found to be 12000 nM on Prothrombin and 1000 nM at Coagulation factor X.
Regarding `Cc1cc(Br)c(O)c(-c2cc3cc(C(=N)N)ccc3[nH]2)c1`, the Ki in assay [1] was determined as 110 nM; on Prothrombin, 360 nM; at Plasminogen, 1200 nM; on Serine protease 1 it was 640 nM; at Coagulation factor X, 100 nM.
Turning to `N=C(N)c1ccc2[nH]c(-c3cc(CCOP(=O)(O)O)cc(Br)c3O)c(Cc3ccccc3)c2c1`, the Ki in assay [1] was 400 nM; on Prothrombin, 330 nM; on Plasminogen it was 1200 nM; at Serine protease 1 it was 3800 nM; at Coagulation factor X it was 0.5 nM. The “2x aPPT” value in assay [2] worked out at 0.42 µM.
Take `Cc1cc(C)c(O)c(-c2cc3cc(C(=N)N)ccc3[nH]2)c1`: the Ki in assay [1] was determined as 2300 nM; at Prothrombin, 6900 nM; on Plasminogen, 10000 nM; on Serine protease 1, 5000 nM; at Coagulation factor X, 1200 nM.
With `O=C(O)CCc1cc(Br)c(O)c(-c2[nH]c3ccccc3c2Cc2ccccc2)c1`, the Ki worked out at 700000 nM on Prothrombin and 300000 nM at Coagulation factor X.
As to `Cc1cc(Br)c(O)c(-c2[nH]c3ccc(C(=N)N)cc3c2CCc2ccccc2)c1`, the Ki came to 2300 nM in assay [1]; 710 nM on Prothrombin; 8800 nM on Plasminogen; 3400 nM at Serine protease 1; 350 nM at Coagulation factor X.
As for `Cc1cc(Br)c(O)c(-c2[nH]c3ccc(C(=N)N)cc3c2Cc2ccccc2)c1`, the Ki in assay [1] came to 1600 nM; on Prothrombin, 260 nM; on Plasminogen, 4600 nM; at Serine protease 1, 2400 nM; at Coagulation factor X, 20 nM. For the same compound, the “2x aPPT” value in assay [2] worked out at 3.9 µM.
As for `Cc1ccc(O)c(-c2cc3cc(C(=N)N)ccc3[nH]2)c1`, the Ki in assay [1] worked out at 12400 nM; on Prothrombin it was 23000 nM; on Plasminogen it was 21000 nM; on Serine protease 1 it was 8200 nM.
For `N=C(N)c1ccc2[nH]c(-c3cc(CCCC(=O)O)cc(Br)c3O)c(Cc3ccccc3)c2c1`, the Ki came out at 270 nM in assay [1]; 40 nM on Prothrombin; 1500 nM at Plasminogen; 610 nM on Serine protease 1; 0.7 nM on Coagulation factor X. The “2x aPPT” value in assay [2] worked out at 0.75 µM.
On to `N=C(N)c1ccc2[nH]c(-c3cc(C(=O)O)cc(Br)c3O)c(Cc3ccccc3)c2c1`, for which, in assay [2], the “2x aPPT” value was determined as 0.55 µM. In addition, the Ki at Plasminogen is 1500 nM; at Serine protease 1, 440 nM; on Coagulation factor X, 4 nM.
`N=C(N)c1ccc2[nH]c(-c3cc(CCC(=O)O)cc(Br)c3O)c(Cc3ccccc3)c2c1`: the Ki in assay [1] worked out at 280 nM; at Prothrombin it was 120 nM; at Plasminogen, 1700 nM; on Serine protease 1, 600 nM; on Coagulation factor X it was 0.5 nM. In assay [2], the “2x aPPT” value is 0.52 µM.
With `Cc1cc(Br)c(O)c(-c2[nH]c3ccc(C(=N)N)cc3c2CCCc2ccccc2)c1`, the inhibition constant (Ki) in assay [1] was determined as 8600 nM; at Prothrombin it was 6600 nM; at Plasminogen it was 32000 nM; on Serine protease 1, 42000 nM; at Coagulation factor X, 7600 nM.
`N=C(N)c1ccc2[nH]c(-c3cc(-c4nn[nH]n4)cc(Br)c3O)c(Cc3ccccc3)c2c1`: the inhibition constant Ki in assay [1] was found to be 550 nM; at Prothrombin, 350 nM; on Plasminogen, 4200 nM; at Serine protease 1, 1300 nM; at Coagulation factor X it was 10 nM. For the same compound, the “2x aPPT” value in assay [2] came out at 0.7 µM.
